From patent publication EP4692059A1, “CATIONIC LIPID HAVING DISULFIDE BOND” (Tohoku University, priority 2023, dated 2024)

How the values were obtained:
[1] = Particle size, PdI and zeta potential of mRNA-encapsulating LNPs by dynamic light scattering (Experimental Example 2); type: physicochemical
Protocol: An acidic buffer solution (total amount: 1080 µL) of nucleic acid was prepared by weighing 7.2 µg of mRNA solution (0.6 mg/mL) in a 5 mL tube and adding acidic malate buffer (20 mM, pH 3.0).
An acidic buffer solution of nucleic acid and an ethanol solution of lipid were each weighed in a syringe.
The particle size, PdI (Polydispersity Index), and zeta potential of the mRNA-encapsulating LNP prepared by the method of the above-mentioned 1 were measured by a dynamic light scattering method (Zetasizer Nano; Malvern).

[2] = Particle size, PdI and zeta potential of mRNA-encapsulating LNPs by dynamic light scattering (Experimental Example 6); type: physicochemical; conditions: mRNA-encapsulating LNP; for zeta potential (mV): cationic lipid:DOPC:Chol=49:7.5:42.5:1, dispersion in TBS (Tables 8-1, 8-2); for PdI / particle size (nm): cationic lipid:DOPC:Chol=49:7.5:42.5:1, dispersion in TBS, dynamic light scattering (Tables 8-1, 8-2)
Protocol: An acidic buffer solution (total amount: 1300 µL) of nucleic acid was prepared by weighing 6.5 µg of mRNA solution (0.6 mg/mL) in a 5 mL tube and adding acidic citrate buffer (20 mM, pH 5.0).
An acidic buffer solution of nucleic acid and an ethanol solution of lipid were each weighed in a syringe. […] The obtained concentrate was diluted with TBS to a lipid concentration of 2 mM to give a dispersion containing LNP.
The particle size, PdI (Polydispersity Index), and zeta potential of the mRNA-encapsulating LNP prepared by the method of the above-mentioned 1 were measured by a dynamic light scattering method (Zetasizer Nano; Malvern). […]

liver [3] = experiment: In vivo gene expression, luciferase luminescence in the liver after tail vein administration (Experimental Example 4); conditions: BALB/c mouse, mRNA 0.05 mg/kg; for amount of luminescence (photons/sec) in liver: tail vein, 4.5 hr after administration, LNP cationic lipid:DOPC:Chol:DMG-PEG2k = 52.5:7.5:40:1.5, prepared as in Experimental Example 2; for relative amount of luminescence: liver luminescence relative to cationic lipid of Comparative Example
Protocol: LNP encapsulating mRNA that expresses luciferase (cationic lipid:DOPC:Chol:DMG-PEG2k = 52.5:7.5:40:1.5 (molar ratio)) was prepared by the method described in [Experimental Example 2], 1.
(§1) The prepared each mRNA-encapsulating LNP dispersion was administered from the tail vein of BALB/c mouse (male, 5-week-old). The dose of mRNA was set to 0.05 mg per 1 kg body weight of the mouse, and the dose of the mRNA-encapsulating LNP dispersion was set to 10 µL per 1 g body weight of the mouse. After 4.5 hr from the administration of the mRNA-encapsulating LNP dispersion, a PBS solution of D-luciferin potassium was administered into the abdominal cavity of the mouse. The dose of D-luciferin potassium was set to 3 mg per mouse, and the dose of the PBS solution of D-luciferin potassium was set to 200 µL per mouse. After 15 min from the administration of the PBS solution of D-luciferin potassium, the mouse was euthanized, and the liver was isolated. The luminescence in the liver was quantified using an in vivo imaging system (IVIS) with an exposure of 10 sec. The amount of luminescence in the liver was quantified by image analysis using Live Imaging software attached to IVIS. The amount of luminescence (photons/sec) was calculated from the acquired image and used as an index of gene expression activity. The cationic lipids used, the luminescence intensity in the liver, and the relative luminescence intensity (= luminescence intensity in the liver when cationic lipid of Example was used/luminescence intensity in the liver when cationic lipid of Comparative Example was used) are shown in Table 7-1 to Table 7-3. "E+0a" (a: integer) indicated in Table 7-1 to Table 7-3 means "10^a". For example, "3.94E+09" means "3.94×10^9". […]

liver [4] = experiment: In vivo gene expression, luciferase luminescence in the liver after tail vein administration (Experimental Example 7); conditions: BALB/c mouse, mRNA 0.05 mg/kg
Protocol: LNP encapsulating mRNA that expresses luciferase (cationic lipid:DOPC:Chol:DMG-PEG2k = 52.5:7.5:40:1.5 (molar ratio)) was prepared by the method described in [Experimental Example 6], 1.
as §1, with “9.” for “7-1 to Table 7-3. "E+0a" (a: integer) indicated in Table 7-1 to Table 7-3 means "10^a".”

HeLa cells = experiment: In vitro gene expression in HeLa cells (luciferase mRNA-encapsulating LNP, cumulative luminescence in 24 hr); conditions: for cumulative luciferase luminescence intensity (RLU) in 24 hr: LNP cationic lipid:DOPC:Chol:DMG-PEG2k = 50:10:40:1, mRNA 0.2 µg per dish, E+0a means 10^a; for relative luminescence intensity: cumulative intensity in 24 hr relative to cationic lipid of Comparative Example
Protocol: LNP encapsulating mRNA that expresses luciferase (cationic lipid:DOPC:Chol:DMG-PEG2k = 50:10:40:1 (molar ratio)) was prepared by the method described in [Experimental Example 2], 1.
HeLa cells, which are human cervical cancer cells, were seeded in a 3.5 cm dish at 5.0×10^4 cells/2 mL/Dish 24 hours before transfection. After 24 hr, the medium was changed to a culture medium (D-MEM) containing 0.1 mM D-luciferin. The prepared mRNA-encapsulating LNP was diluted with PBS to an mRNA concentration of about 1 µg/mL. The diluted mRNA-encapsulating LNP solution (about 200 µL, mRNA: 0.2 µg) was added to a 3.5 cm dish, and set in an incubator luminometer KronosDio. The luminescence intensity of luciferase was measured for 2 min every one hour. The cumulative luciferase luminescence intensity in 24 hr was calculated from the obtained time change of expression. […] In Comparative Example, the cationic lipid described in Table 2 was used.

[5] = mRNA-encapsulating LNP, cationic lipid:DOPC:Chol = 50:10:40 (molar ratio) + DMG-PEG2k about 1 mol, Polydispersity Index, dynamic light scattering
[6] = mRNA-encapsulating LNP, cationic lipid:DOPC:Chol = 50:10:40 (molar ratio) + DMG-PEG2k about 1 mol, Zetasizer Nano
[7] = mRNA-encapsulating LNP, cationic lipid:DOPC:Chol = 50:10:40 (molar ratio) + DMG-PEG2k about 1 mol, dynamic light scattering
[8] = mRNA-encapsulating LNP containing the cationic lipid, dispersion in PBS (Table 5-3)
[9] = mRNA-encapsulating LNP containing the cationic lipid, dispersion in PBS, dynamic light scattering (Table 5-3)

Compound	PdI [1, 5]	zeta potential (mV) [1, 6] [mV]	particle size (nm) [1, 7] [nm]	zeta potential (mV) [2] [mV]	PdI [2]	particle size (nm) [2] [nm]	zeta potential (mV) [1, 8] [mV]	PdI [1, 9]	particle size (nm) [1, 9] [nm]	amount of luminescence (photons/sec) in liver (liver [3]) [photons/sec]	relative amount of luminescence (liver [3])	amount of luminescence (photons/sec) in liver (liver [4]; tail vein, 4.5 hr after administration, LNP cationic lipid:DOPC:Chol:DMG-PEG2k = 52.5:7.5:40:1.5, prepared as in Experimental Example 6) [photons/sec]	relative amount of luminescence (liver [4]; liver luminescence relative to cationic lipid of Comparative Example)	cumulative luciferase luminescence intensity (RLU) in 24 hr (HeLa cells) [RLU]	relative luminescence intensity (HeLa cells)
CCCCCC/C=C\COC(=O)CCCC(=O)Oc1ccc(CC(=O)OCCC2CCN(CCSSCCN3CCC(CCOC(=O)Cc4ccc(OC(=O)CCCCCCC/C=C\CCCCCCCC)cc4)CC3)CC2)cc1 [compound 43]	0.072	-3.98	90.46	-5.9	0.17	128.2									
CCCCCC/C=C\COC(=O)CCCC(=O)Oc1ccc(CC(=O)OCCC2CCN(CCSSCCN3CCC(CCOC(=O)Cc4ccc(OC(=O)CCCC(=O)OC/C=C\CCCCCC)cc4)CC3)CC2)cc1 [compound 41]	0.067	-2.30	123.30							1.73E+09	1.14				
CCCCCCCC/C=C\CCCCCCCC(=O)Oc1ccc(CC(=O)OCCC2CCN(CCSSCCN3CCC(CCOC(=O)Cc4ccc(OC(=O)CCCCCCC/C=C\C[C@H](CCCCCC)OC(C)=O)cc4)CC3)CC2)cc1 [compound 1]	0.070	-3.79	96.63							3.94E+09	2.59			2.61E+07	1.42
CCCCCC[C@@H](C/C=C\CCCCCCCC(=O)Oc1ccc(CC(=O)OCCC2CCN(CCSSCCN3CCC(CCOC(=O)Cc4ccc(OC(=O)CCCC(=O)OC[C@H](COC(C)=O)OC(C)=O)cc4)CC3)CC2)cc1)OC(=O)CCCCC [compound 17]	0.061	-5.19	127.90							3.73E+09	2.45			5.18E+07	2.81
CCCCCCC#CCCOC(=O)CCCC(=O)Oc1ccc(CC(=O)OCCC2CCN(CCSSCCN3CCC(CCOC(=O)Cc4ccc(OC(=O)CCCC(=O)Oc5c(C)c(C)c6c(c5C)CCC(C)(CCCC(C)CCCC(C)CCCC(C)C)O6)cc4)CC3)CC2)cc1 (stereo not shown) [compound 150]	0.071	-2.14	94.66	-8.1	0.11	130.2									
CCCCCCC#CCCOC(=O)CCCC(=O)Oc1ccc(CC(=O)OCCC2CCN(CCSSCCN3CCC(CCOC(=O)Cc4ccc(OC(=O)CCCCCCC/C=C\CCCCCCCC)cc4)CC3)CC2)cc1 [compound 149]	0.059	-6.03	97.44	-6.2	0.15	123.1									

Further lines, with some results ahead:

PdI [1, 5]	zeta potential (mV) [1, 6] [mV]	particle size (nm) [1, 7] [nm]	zeta potential (mV) [2] [mV]	PdI [2]	particle size (nm) [2] [nm]	zeta potential (mV) [1, 8] [mV]	PdI [1, 9]	particle size (nm) [1, 9] [nm]	Compound	amount of luminescence (photons/sec) in liver (liver [3]) [photons/sec]	relative amount of luminescence (liver [3])	amount of luminescence (photons/sec) in liver (liver [4]; tail vein, 4.5 hr after administration, LNP cationic lipid:DOPC:Chol:DMG-PEG2k = 52.5:7.5:40:1.5, prepared as in Experimental Example 6) [photons/sec]	relative amount of luminescence (liver [4]; liver luminescence relative to cationic lipid of Comparative Example)	cumulative luciferase luminescence intensity (RLU) in 24 hr (HeLa cells) [RLU]	relative luminescence intensity (HeLa cells)
						-5.07	0.111	96.63	CCCCCCCC/C=C\CCCCCCCC(=O)Oc1ccc(CC(=O)OCCC2CCN(CCSSCCN3CCC(CCOC(=O)Cc4ccc(OC(=O)CCCC(=O)N(CCCCCC)CCCCCC)cc4)CC3)CC2)cc1 [compound 124]	5.12E+09	3.37				
			-2.99	0.09	130.5	-2.5	0.047	89.3	CCCCCCCC/C=C\CCCCCCCC(=O)Oc1ccc(CC(=O)OCCC2CCN(CCSSCCN3CCC(CCOC(=O)Cc4ccc(OC(=O)CCCCCCC/C=C\CC(CCCCCC)OC(=O)C(CC)CCCC)cc4)CC3)CC2)cc1 (stereo not shown) [compound 166]			8.49E+09	4.15		
0.112	-4.68	106.10							CCCCCCCC/C=C\CCCCCCCC(=O)Oc1ccc(CC(=O)OCCC2CCN(CCSSCCN3CCC(CCOC(=O)Cc4ccc(OC(=O)CCCC(=O)OC[C@H](COC(=O)CCCCCCC)OC(=O)CCCCCCC)cc4)CC3)CC2)cc1 [compound 5]	3.76E+09	2.48			4.16E+07	2.25
0.073	-3.63	94.42							CCCCCCCC/C=C\CCCCCCCC(=O)Oc1ccc(CC(=O)OCCC2CCN(CCSSCCN3CCC(CCOC(=O)Cc4ccc(OC(=O)CCCC(=O)OC[C@H](COC(=O)CCCCC)OC(=O)CCCCC)cc4)CC3)CC2)cc1 [compound 13]					1.24E+08	6.72
0.063	-4.31	92.96	-7.4	0.15	133.6				CCCCCCC#CCCOC(=O)CCCC(=O)Oc1ccc(CC(=O)OCCC2CCN(CCSSCCN3CCC(CCOC(=O)Cc4ccc(OC(=O)CCCCCCCC(=O)OC(CCCCCCCC)CCCCCCCC)cc4)CC3)CC2)cc1 [compound 148]						
			-3.79	0.082	122.1	-2.39	0.034	83.1	CCCCCCCC/C=C\CCCCCCCC(=O)Oc1ccc(CC(=O)OCCC2CCN(CCSSCCN3CCC(CCOC(=O)Cc4ccc(OC(=O)CCCCCCCCCCC(CCCCCC)OC(=O)CCCCCCC)cc4)CC3)CC2)cc1 (stereo not shown) [compound 145]	6.65E+09	4.37				
